Molecular target: T1, Galectin-3 (Gal-3) (Homo sapiens, UniProt P17931)
T1 construct: gene LGALS3; Human recombinant Gal-3
Assay: SPR kinetic analysis (Biacore)
Format: binding

T1 sequence (P17931 2-250): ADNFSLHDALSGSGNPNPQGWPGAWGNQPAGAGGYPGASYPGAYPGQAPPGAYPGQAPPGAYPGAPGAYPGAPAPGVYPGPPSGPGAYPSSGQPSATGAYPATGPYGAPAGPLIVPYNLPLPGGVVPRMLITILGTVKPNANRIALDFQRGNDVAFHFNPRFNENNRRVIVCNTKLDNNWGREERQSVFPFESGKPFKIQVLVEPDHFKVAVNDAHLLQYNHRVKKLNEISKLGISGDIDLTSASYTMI

**Q.** GB1211 was tested. Which Kd did it give?
**A.** 23.3 nM

Reference: publication PMC10493609 (Frontiers in Immunology, 2023)
